# Measured values reported in patent US7507716B2, “Method for treating pain with prolactin antagonists” (Board of Regents, The University of Texas System, priority 2005, dated 2009).
# T1: PRL-R (Rattus norvegicus, UniProt P05710)
# T1 construct: endogenous in cells; host or cells: primary rat trigeminal ganglion neurons
# T1 sequence (P05710 20-610): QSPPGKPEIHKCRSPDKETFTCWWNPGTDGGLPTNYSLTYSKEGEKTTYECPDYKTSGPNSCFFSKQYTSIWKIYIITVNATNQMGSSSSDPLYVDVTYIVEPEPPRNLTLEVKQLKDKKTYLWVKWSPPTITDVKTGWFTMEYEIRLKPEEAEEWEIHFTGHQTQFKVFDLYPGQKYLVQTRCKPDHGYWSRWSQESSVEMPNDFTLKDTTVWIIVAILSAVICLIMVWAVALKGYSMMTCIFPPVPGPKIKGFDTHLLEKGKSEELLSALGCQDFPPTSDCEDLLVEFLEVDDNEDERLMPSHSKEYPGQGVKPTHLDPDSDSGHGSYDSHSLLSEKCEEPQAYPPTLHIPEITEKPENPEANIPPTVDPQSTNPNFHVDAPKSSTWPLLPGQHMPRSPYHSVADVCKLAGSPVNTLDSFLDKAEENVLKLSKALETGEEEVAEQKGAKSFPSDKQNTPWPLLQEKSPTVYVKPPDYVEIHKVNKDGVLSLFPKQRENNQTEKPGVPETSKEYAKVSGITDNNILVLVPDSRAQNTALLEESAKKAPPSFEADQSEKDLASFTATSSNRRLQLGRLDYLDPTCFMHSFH
# Legend:
# TG neurons [1] = assay: PRL release from cultured TG neurons (RIA); format: cell-based, rat; conditions: 300 nM capsaicin or 25 mM KCl; for release of immunoreactive PRL: neurons from OVX rats cultured in the absence of E2; for PRL released from TG neurons: neurons of proestrous rats cultured with 50 nM E2, 15 min
# Procedure: PRL is known to be released from cells of the anterior pituitary (Zacur et al. 1976) and from extrapituitary sites (Ben-Jonathan et al., 2002; Zinger et al., 2003; Torner et al., 2004). To determine whether PRL protein is present in a releasable pool in TG sensory neurons, cultured TG neurons derived either from proestrous rats (cultured in the presence of 50 nM E2) or from OVX rats (cultured without E2) were exposed to 300 nM capsaicin or 25 mM KCl buffer. The results obtained from these experiments are depicted in FIG. 2D, which indicate that a substantial amount of PRL is released from TG neurons of proestrous rats cultured in the presence of E2 upon stimulation with either capsaicin (158±12% of vehicle) or KCL (154±16% of vehicle). […] Data are presented as mean % of basal release±SEM (n=6/group, *=p<0.05 and **=p<0.01; one-way ANOVA with Bonferroni's post hoc test).
# Rat trigeminal ganglia (TG) primary cultures: The TG from ovariectomized or intact female rats were quickly removed after decapitation and neuronal cultures were prepared as previously described (Fehrenbacher et al., 2005; Patwardhan et al., 2005). The trypsin treatment was omitted in TG cultures prepared for electrophysiological recording and Ca^2+ imaging. Cells were plated on 24 well Poly-D-Lysine coated plates (for iCGRP experiments), 6 well Poly-D-Lysine plates (for PRL release experiments), Poly-D-Lysine/laminin-coated coverslips (for single cell studies) or 10 cm plates (for phosphorylation experiments), respectively. The TG cultures were maintained at 37° C. and 5% CO2. […] The media were replaced at the end of 24 h and then 48 h later.
# PRL Release Experiments: These experiments were performed at day 5 with TG cultures from OVX or intact female rats using Krebs buffer (NaCl 135 mM, KCl 3.5 mM, MgCl2 1 mM, NaH2PO4 1 mM, CaCl2 2.5 mM, BSA 0.1%, dextrose 3.3 mM, ascorbic acid 0.1 mM, HEPES 10 mM, thiorphan 16 μM; pH 7.4). After two initial washes, a 15 min baseline sample was collected. Cells were then exposed to 300 nM capsaicin (Sigma) or 25 mM KCl and incubated at 37° C. for an additional 15 min followed by collection of the samples. The 1 ml collected samples were lyophilized and resuspended in 250 ul of water and immediately frozen in −80° C. Frozen samples were sent to Dr. A. F. Parlow (NHPP, Harbor-UCLA) to have levels of PRL determined by a well-validated radioimmunoassay (RIA) with sensitivity range from 1-100 ng/ml. Results are representative of 6 independent experiments.
# [2] = Plasma estradiol levels after s.c. estradiol benzoate; format: in vivo, rat; conditions: OVX rats, mean±SEM
# PRL-R [3] = target: T1, PRL-R; assay: Calcium imaging, block of PRL potentiation by PRL-R antagonist; format: cell-based; conditions: for block of PRL potentiation of capsaicin-evoked Ca2+ influx: antagonist 800 nM co-treated with PRL 40 nM, capsaicin 30 nM
# Procedure: To determine whether PRL augmentation of capsaicin responses occurs through the PRL-R (i.e., whether PRL-signaling could account for the observed effects of PRL on nociceptors sensitization), Ca^2+ imaging experiments were performed on neurons in the presence of a molar excess of a full PRL-R antagonist (Δ 1-9-G129R-hPRL) (Bernichtein et al., 2003; Goffin et al., 2005). Cultured neurons were treated as described in the previous experiment. In addition, neurons were co-treated with PRL and the PRL-R antagonist 1-9-Δ-G 129R-hPRL (800 nM). […] Data are presented as mean % of vehicle±SEM (n=19-40, *=p<0.05; two-way ANOVA).
# Calcium Imaging: TG cells cultured on coverslips were loaded with the cell-permeable calcium sensitive dye FURA 2-AM (1 ug/ml) (Molecular Probes, Eugene, Oreg.) for 30 min at 37° C. in Standard External Solution (SES) of the following composition in mM: 140 NaCl, 5 KCl, 2 CaCl2, 1 MgCl2, 10 glucose and 10 HEPES, pH 7.4. Coverslips containing cells were placed in a chamber with constant infusion of SES. Images were captured by a Nikon Eclipse TE-2000 microscope fitted with a 20×/NA 0.75 Fluor objective. Fluorescence images were collected in 5 sec intervals throughout the experiment, analyzed, and the F340/F380 ratio calculated by the Methafluor Software (MethaMorph, Web Universal Imaging Corporation, Downingtown, Pa.). Capsaicin was delivered locally to the cells, whereas PRL was delivered into the bath solution. The magnitude of calcium influx was determined by subtracting the averaged baseline 30 sec prior to the capsaicin stimulus from the peak achieved by the capsaicin stimulation for each cell (ratiometric method, ΔF340/F380).
# PRL-R [4] = target: T1, PRL-R; assay: Patch clamp Icap, G129R-PRL against PRL sensitization; format: cell-based
# Procedure: (§1) Patch Clamp Electrophysiology: All recordings were performed in whole-cell voltage-clamp (Vh=−60 mV) configuration. Recordings were acquired at 22-24° C. from the somata of neurons (15-45 pF) using an Axopatch200B amplifier and pCLAMP9.0 software (Axon Instruments, Union City, Calif.). Data were filtered at 0.5 kHz and sampled at 2 kHz. Borosilicate pipettes (Sutter, Novato, Calif.) were polished to resistances of 3-5 MΩ in pipette solution. Access resistance was compensated (40-80%) to 7-10 MΩ values when appropriate. Cell diameters were calculated using d=√[100*Cm/π], where d (μm) is cell diameter and Cm (pF) is membrane capacitance.
# Since it is possible that this effect is observed only in full PRL-R antagonists, it is of interest to determine the effectiveness of partial PRL-R antagonists in blocking PRL-mediated nociceptor sensitization. To this end, the ability of the partial PRL […] (G129R-PRL) to inhibit PRL-induced increase in sensitivity to capsaicin was assessed. FIG. 10 summarizes the effect of administering PRL, human G129R-PRL, or their combination, on Icap. G129R-PRL acts as either a partial or full antagonist, depending on the cellular context of the experimental system (Goffin, Bernichtein et al. 2003).
# TG neurons [5] = assay: Patch clamp, capsaicin-induced currents (Icap); format: cell-based, rat
# Procedure: Since application of PRL rapidly increases capsaicin-induced calcium accumulation and neuropeptide release, the role of PRL in modulating capsaicin-induced currents (Icap) was examined. TRPV1 desensitization of cultured TG neurons was induced through the repeated application of 100 nM capsaicin to the cultures (Vellani et al., 2001; Bonnington and McNaughton, 2003). The sub-maximal concentration of capsaicin used was effective in inducing desensitization and permitted the investigation PRL-evoked re-sensitization or further sensitization of TRPV1. […] Data are presented as mean±SEM of PRL-treated ΔIcap (3rd Icap-2^ndIcap) normalized to vehicle treated ΔIcap, (n=8-12/group, *=p<0.05 and **=p<0.01; two-way ANOVA). […] Acutely dissociated TG neurons from female rats were locally pretreated with vehicle or PRL (40 nM) for 60 sec, washed for 60 sec and subjected to a single capsaicin pulse (40 sec, 0.1 nM-5 μM). Data are shown as mean±SEM (n=12-20/group, *=p<0.05 and ***=p<0.001 vehicle vs. PRL; two-way ANOVA). FIGS. 5C and 5D depict representative traces of Icap recordings from intact (FIG. 5C) and OVX (FIG. 5D) female rat TG neurons. Concentration of applied CAP and PRL are indicated. The duration CAP and PRL treatment was 30 sec and 60 sec, respectively. The magnitude of the second capsaicin-evoked inward currents (Icap) peak was subtracted from the third Icap peak to calculate the difference (ΔIcap). Data were normalized to the vehicle treated ΔIcap.
# as §1
# Standard external solution (SES) had the composition as described above. […] Drugs were applied using a fast, computer controlled pressure-driven 8-channel system (ValveLink8; AutoMate Scientific, San Francisco, Calif.).
# FIG. 11B summarizes the effect of adding rhPRL on Icap of cultured TG neurons from male, female and OVX female rats. Number of recorded neurons and neurons in which effects were observed are indicated above the bars. The recordings were performed in whole-cell voltage clamp c(Vh=−60 mV) configuration. Solutions are SES and SIS.
molecule,measurement,setting,value
"[Cl-].[K+] [KCL, KCl]",release of immunoreactive PRL,TG neurons [1],no detectable release
same,PRL released from TG neurons,TG neurons [1],154±16 % of vehicle
C[C@]12CC[C@@H]3c4ccc(OC(=O)c5ccccc5)cc4CC[C@H]3[C@@H]1CC[C@@H]2O [17-beta-estradiol 3-benzoate],plasma estradiol levels,[2]; 2 μg/kg s.c. daily for 10 days,1.89 ± 0.36 pg/mL
same,plasma estradiol levels,[2]; 20 μg/kg s.c. daily for 10 days,59 ± 17.1 pg/mL
same,plasma estradiol levels,[2]; 80 μg/kg s.c. daily for 10 days,110 ± 36.6 pg/mL
COc1cc(CNC(=O)CCCC/C=C/C(C)C)ccc1O [capsaicin],release of immunoreactive PRL,TG neurons [1],no detectable release
same,PRL released from TG neurons,TG neurons [1],158±12 % of vehicle
"Δ 1-9-G129R-hPRL: full PRL-R antagonist, human PRL variant synthesized as described (Bernichtein et al., 2003; Goffin et al., 2005) (protein) LPICPGGAARCQVTLRDLFDRAVVLSHYIHNLSSEMFSEFDKRYTHGRGFITKAINSCHTSSLATPEDKEQAQQMNQKDFLSLIVSILRSWNEPLYHLVTEVRGMQEAPEAILSKAVEIEEQTKRLLERMELIVSQVHPETKENEIYPVWSGLPSLQMADEESRLSAYYNLLHCLRRDSHKIDNYLKLLKCRIIHNNNC",effect of antagonist on its own on capsaicin-evoked Ca2+ influx,"PRL-R [3]; 800 nM, without PRL",had no effect on its own
same,block of PRL potentiation of capsaicin-evoked Ca2+ influx,PRL-R [3],significantly blocked PRL potentiation of capsaicin-evoked Ca^2+ influx
same,block of PRL potentiation of capsaicin-evoked Ca2+ influx,PRL-R [3]; listed as 1-9-Δ-G129R-hPRL,significantly blocked
"G129R-PRL: human prolactin variant, partial or full PRL-R antagonist / partial agonist; sequence in FIG. 9B (SEQ ID NO: 48) (protein, listed as Homo sapiens) LPICPGGAARCQVTLRDLFDRAVVLSHYIHNLSSEMFSEFDKRYTHGRGFITKAINSCHTSSLATPEDKEQAQQMNQKDFLSLIVSILRSWNEPLYHLVTEVRGMQEAPEAILSKAVEIEEQTKRLLERMELIVSQVHPETKENEIYPVWSGLPSLQMADEESRLSAYYNLLHCLRRDSHKIDNYLKLLKCRIIHNNNC",effect on Icap in the absence of rPRL,PRL-R [4]; 3 of 3 examined neurons,displayed partial agonist effects
same,reduction of the PRL effect on Icap,"PRL-R [4]; G129R-PRL 16 nM co-applied with rPRL 4 nM, observed in 6 of 7 neurons",about 40%
"rhPRL: recombinant human PRL (protein, UniProt P01236 29-227, looked up) Prolactin: LPICPGGAARCQVTLRDLFDRAVVLSHYIHNLSSEMFSEFDKRYTHGRGFITKAINSCHTSSLATPEDKEQAQQMNQKDFLSLIVSILRSWNEPLYHLVTEVRGMQEAPEAILSKAVEIEEQTKRLLEGMELIVSQVHPETKENEIYPVWSGLPSLQMADEESRLSAYYNLLHCLRRDSHKIDNYLKLLKCRIIHNNNC",sensitization of capsaicin-evoked Icap,"TG neurons [5]; cultured TG neurons from male and female rats, capsaicin 100 nM (FIG. 11A)",is able to sensitize cultured neurons isolated from male and female TG neurons
same,concentration dependence of Icap increase,"TG neurons [5]; male and female TG neurons, varying rhPRL concentrations",dose-dependent increases in Icap
